# In US20230416245A1, “ADENOSINE ANALOGS FOR THE TREATMENT OF DISEASE” (BIOINTERVENE, INC., priority 2020, published 2023):
# Target: human adenosine A3 receptor (Homo sapiens (Human), UniProt P0DMS8)
# Assay: Adenosine receptor binding assay ([125I]-AB-MECA competition)
# Settings: inhibition of 0.15 nM [125I]-AB-MECA binding, membranes of cells expressing human A3 receptor; read-out: hA3 Ki: Ki
# Outline: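 Membranes (20 μg) from cells stably expressing human A3 receptor in 50 mM Tris pH 7.4 ± 10 mM MgCl2 with 0.15 nM [125I]-AB-MECA, 120 min at room temperature, filtration and gamma counting. IC50 and Hill slope by Hill-equation fit; Ki via Cheng-Prusoff using the radioligand Kd.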
# Chain of human adenosine A3 receptor (P0DMS8 whole entry): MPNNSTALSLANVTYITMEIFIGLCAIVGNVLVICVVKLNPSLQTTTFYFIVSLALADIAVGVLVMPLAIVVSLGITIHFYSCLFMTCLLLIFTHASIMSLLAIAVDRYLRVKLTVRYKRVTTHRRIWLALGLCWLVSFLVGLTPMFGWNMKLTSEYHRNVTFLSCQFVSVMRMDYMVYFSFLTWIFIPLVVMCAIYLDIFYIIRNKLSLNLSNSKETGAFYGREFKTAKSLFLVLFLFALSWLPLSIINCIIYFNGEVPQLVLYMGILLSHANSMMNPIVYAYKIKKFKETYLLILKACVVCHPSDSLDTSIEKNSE
row,Ki,SMILES
1,1.7 nM,"O[C@@H]1[C@H](O)[C@@H]2C[C@@H]2[C@H]1n1cnc2c(NCC(F)F)nc(Cl)nc21 [Compound 35, (1R,2R,3S,4R,5S)-4-(2-chloro-6-((2,2-difluoroethyl)amino)-9H-purin-9-yl)bicyclo[3.1.0]hexane-2,3-diol]"
2,2 nM,"O[C@@H]1[C@H](O)[C@@H]2C[C@@H]2[C@H]1n1cnc2c(NCC(F)F)cc(Cl)nc21 [Compound 40, (1R,2R,3S,4R,5S)-4-(5-chloro-7-((2,2-difluoroethyl)amino)-3H-imidazo[4,5-b]pyridin-3-yl)bicyclo[3.1.0]hexane-2,3-diol]"
3,21.3 nM,"CCNc1cc(C#CC2CC2)nc2c1ncn2[C@H]1[C@H](O)[C@H](O)[C@@H]2C[C@@H]21 [Compound 46, (1R,2R,3S,4R,5S)-4-(5-(cyclopropylethynyl)-7-(ethylamino)-3H-imidazo[4,5-b]pyridin-3-yl)bicyclo[3.1.0]hexane-2,3-diol]"
4,> 9400 nM,"Cc1c(Cl)nc2c(ncn2[C@H]2[C@H](O)[C@H](O)[C@@H]3C[C@@H]32)c1NCC(F)F [Compound 60, (1R,2R,3S,4R,5S)-4-(5-chloro-7-((2,2-difluoroethyl)amino)-6-methyl-3H-imidazo[4,5-b]pyridin-3-yl)bicyclo[3.1.0]hexane-2,3-diol]"
